From US9629857B2, “Therapeutic uses of glutathione mimics” (BOARD OF TRUSTEES OF NORTHERN ILLINOIS UNIVERSITY, priority 2007, dated 2017)

Assays:
[1] = after first pass metabolism; cited from earlier work
[2] = test system: alkaline phosphatase; assay: Digestion of the phosphorylated prodrug with alkaline phosphatase, followed by 31P NMR; format: in vitro ADME; settings: 1 mg (10 units) alkaline phosphatase in water, stirred for 2 hours
Method: N-acetyl-S-phosphocysteine was synthesized according to the procedure followed by Binkely (1954). N-acetyl cysteine (0.5 g) was dissolved in 8 mL of distilled water in an ice bath. The NAC solution was then treated with 0.2 mL of phosphorus oxychloride and with sodium hydroxide to maintain the basic pH of 11. The resulting white solid was dried and re-dissolved in deuterium oxide for ^31P, ^13C and ^1H NMR analysis. After analysis, the sample was dried, re-suspended in water, and treated with 1 mg (10 units) of alkaline phosphatase, and stirred for 2 hours. The solution was dried and resuspended in deuterium oxide for NMR analysis.
Synthesis of ester cysteine was followed according to the procedure as follows. NAC (0.2 g) was dissolved in 7 mL of ethanol, 2 mL of concentrated hydrochloric acid and stirred at room temperature for 1 hour. The reaction mixture was refluxed for 1 hour at 60° C. The sample was then dried and resuspended in acetonitrile for ESI-MS analysis (same instrument settings as described for analysis of HIDD). The acid protected sample was phosphorylated with POCL3, and sodium hydroxide dried and resuspended in deuterium oxide for NMR analysis. After analysis, the sample was dried, resuspended in water, treated with 1 mg (10 units) of alkaline phosphatase and stirred for 2 hours. […]
The ester NAC was synthesized according to the procedure as follows and analyzed with ESI-MS. […]

CC(=O)N[C@@H](CS)C(=O)O [NAC, N-acetyl cysteine]
presence of free drug in the systemic circulation [1]: around 9%

CC(=O)N[C@@H](CSP(=O)(O)O)C(=O)O [phosphorylated NAC, N-acetyl-S-phosphocysteine]
cleavage of S—P linkage on digestion with alkaline phosphatase (31P NMR) [2]: hydrolyzed with alkaline phosphatase
